Measured values reported in article PMC2859624 (Progress in neuro-psychopharmacology & biological psychiatry, 2010).
Like-named read-outs stand apart in the source and are kept apart here.

How the values were obtained:
[1] = target: T1, α5β3γ2 GABAA receptors (Rattus norvegicus, UniProt P18508+P19969); details: 100 nM, EC3 GABA, mean ± SEM; ref Rivas et al., 2009; cited from earlier work
[2] = target: human GABAA receptor containing α5 subunit (BZ site) (Homo sapiens, UniProt P18507+P31644); test: Competition binding assay with [3H]flunitrazepam
[3] = tested on: male Wistar rats; test: Elevated plus maze; assay type: in vivo, rat; details: for effect on percentage of time on open arms: post hoc p 0.032
[4] = target: T2, α3β3γ2 GABAA receptors (Rattus norvegicus, UniProt P18508+P20236); details: 100 nM, EC3 GABA, mean ± SEM; ref Rivas et al., 2009; cited from earlier work
[5] = tested on: male Wistar rats; test: Spontaneous locomotor activity; details: for dose inducing a hypolocomotor effect in the SLA: i.p.; for effect on total distance travelled during 45 min: 20 min before test, vs solvent; for effect on total distance (locomotion), 30 min: Dunnett's test
[6] = target: T3, α2β3γ2 GABAA receptors (Rattus norvegicus, UniProt P18508+P23576); details: 100 nM, EC3 GABA, mean ± SEM; ref Rivas et al., 2009; cited from earlier work
[7] = target: human GABAA receptor containing α3 subunit (BZ site) (Homo sapiens, UniProt P18507+P34903); test: Competition binding assay with [3H]flunitrazepam; details: read-out: Ki α3, transfected HEK 293T, duplicate
[8] = target: T4, α1β3γ2 GABAA receptors (Rattus norvegicus, UniProt P18508+P62813); details: 100 nM, EC3 GABA, mean ± SEM; ref Rivas et al., 2009; cited from earlier work
[9] = tested on: male Wistar rats; test: Morris water maze; assay type: in vivo, rat; details: for platform zone entries during the probe trial: after five-day treatment at 30 mg/kg i.p.; for overall influence on water maze learning parameters (acquisition): 5 days
[10] = target: human GABAA receptor containing α4 subunit (BZ site); details: read-out: Ki α4; second independent set of experiments
[11] = target: T1, α5β3γ2 GABAA receptors; assay type: cell-based; details: for % of control current, α5β3γ2: 100 nM, EC3 GABA, mean ± SEM
[12] = target: T4, α1β3γ2 GABAA receptors; assay type: cell-based
[13] = target: T2, α3β3γ2 GABAA receptors; assay type: cell-based; details: for remaining activity at 0.1 µM: read-out: % of control current, α3β3γ2, 100 nM, EC3 GABA, mean ± SEM
[14] = target: T3, α2β3γ2 GABAA receptors; assay type: cell-based; details: for % of control current, α2β3γ2: 100 nM, EC3 GABA, mean ± SEM, 0.1 µM
[15] = target: human GABAA receptor containing α6 subunit (BZ site) (Homo sapiens, UniProt P18507+Q16445); test: Competition binding assay with [3H]flunitrazepam; details: read-out: Ki α6, transfected HEK 293T, duplicate
[16] = tested on: male Wistar rats; details: ref Savić et al., 2008b, cited from earlier work
[17] = tested on: male Wistar rats; details: 30 mg/kg; ref Savić et al., 2008b; cited from earlier work
[18] = read-out: % of control current, α1β3γ2
[19] = zolpidem 0.5 mg/kg during acquisition, ±SEM
[20] = zolpidem 1.0 mg/kg during acquisition, ±SEM
[21] = zolpidem 2.0 mg/kg during acquisition, ±SEM
[22] = zolpidem 2.0 mg/kg during acquisition, ±SEM, P<0.05 vs ZOL 0.5

## C#Cc1ccc2c(c1)C(c1ccccc1F)=NCc1c(C(=O)OCC)ncn1-2 [JY-XHe-053, 8-ethynyl-6-(2-fluorophenyl)-4H-2,5,10b-triaza-benzo[e]azulene-3-carboxylic acid ethyl ester]
[1]
  % of control current, α5β3γ2: 220%
[2]; from Ki values
  binding selectivity for GABAA receptors containing the α5 subunit: approximately 18 fold
[3]; 2.5-40 mg/kg i.p.
  general activity and anxiety-related parameters: devoid of significant behavioral activity
[4]
  % of control current, α3β3γ2: 345 ± 26%
[5]; 2.5-40 mg/kg i.p., 30 min
  effect on central zone activity: not discernible
[5]; 2.5-40 mg/kg i.p., 30 min, vs control
  effect on peripheral zone distance: three higher doses of JYXHe-053 were significantly different from control
[5]
  dose inducing a hypolocomotor effect in the SLA: ≥ 10 mg/kg
[6]
  % of control current, α2β3γ2: 307 ± 14%
[7]
  Ki: 0.0349 µM
[8]
  % of control current, α1β3γ2: 169%

## C#Cc1ccc2c(c1)C(c1ccccn1)=NCc1c(C(=O)OCC)ncn1-2 [SH-053-2'N, 8-ethynyl-6-(2’-pyrydine)-4H-2,5,10b-triaza-benzo[e]azulene-3-carboxylic acid ethyl ester]
[1]
  % of control current, α5β3γ2: 130 ± 3%
[9]; 30 mg/kg i.p., vs control or SH-053-S-CH3-2'F 30 mg/kg
  latency to find the platform, single day: significantly longer search time on the fourth day
[9]
  platform zone entries during the probe trial: lack of incapacitating consequences
[3]; 30 mg/kg i.p.
  effect on percentage of time on open arms: effective treatments
[3]; 10, 20 and 30 mg/kg i.p., Dunnett's test vs solvent
  effect on total arm entries: significant effect of the two higher doses
[3]; 10, 20 and 30 mg/kg i.p., overall treatment effect
  effect on distance travelled in the open arms: no significant effect of treatment
[3]; 10, 20 and 30 mg/kg i.p., post hoc test
  effect on percentage of open arm entries: neither of the single doses was significant on its own
[4]
  % of control current, α3β3γ2: 149 ± 3%
[5]; 30 mg/kg i.p.
  effect on total distance travelled during 45 min: activity-depressing effect of all three treatments was significant
[5]
  dose inducing a hypolocomotor effect in the SLA: 30 mg/kg
[10]
  Ki: > 5 µM
[6]
  % of control current, α2β3γ2: 165 ± 2%
[8]
  % of control current, α1β3γ2: 113 ± 2%

## C#Cc1ccc2c(c1)C(c1ccccc1F)=NC(C)c1c(C(=O)OCC)ncn1-2 (centres unmarked) [SH-053-R-CH3-2'F, 8-ethynyl-6-(2-fluorophenyl)-4-methyl-4H-2,5,10b-triaza-benzo[e]azulene-3-carboxylic acid ethyl ester]
[11]; 0.1 µM
  % of control current, α5β3γ2: 183 ± 7%
[12]; [18]
  remaining activity at 0.1 µM: 111 ± 2%
[9]
  platform zone entries during the probe trial: lack of incapacitating consequences
[13]; 100 nM, EC3 GABA, mean ± SEM, 0.1 µM
  % of control current, α3β3γ2: 125 ± 8%
[14]
  % of control current, α2β3γ2: 124 ± 9%
[3]; doses up to 30 mg/kg i.p.
  general activity- or anxiety-related parameters: completely devoid of changes
[5]; 30 mg/kg i.p.
  effect on total distance (locomotion), 30 min: significantly depressed locomotion
[5]; 10, 20 and 30 mg/kg i.p., 6 intervals
  effect on distance travelled in 5-min bins: did not significantly decrease locomotion
[5]; 20 and 30 mg/kg i.p.
  effect on central and peripheral zone locomotion: decreased central, but not peripheral locomotion

## C#Cc1ccc2c(c1)C(c1ccccc1F)=NC(C)c1c(C(=O)OCC)ncn1-2 (centres unmarked) [SH-053-S-CH3-2'F, 8-ethynyl-6-(2-fluorophenyl)-4-methyl-4H-2,5,10b-triaza-benzo[e]azulene-3-carboxylic acid ethyl ester]
[11]; 0.1 µM
  % of control current, α5β3γ2: 218 ± 4%
[12]; 100 nM, EC3 GABA, mean ± SEM
  % of control current, α1β3γ2: non-significant changes relative to control current
[12]; [18]
  remaining activity at 1 µM: 164 ± 6%
[9]
  platform zone entries during the probe trial: lack of incapacitating consequences
[15]
  Ki: > 5 µM
[13]
  remaining activity at 0.1 µM: 138 ± 5%
[14]
  % of control current, α2β3γ2: 169 ± 5%
[16]; 30 mg/kg
  effect on locomotor activity: significant decrease of locomotor activity
[16]
  dose inducing a hypolocomotor effect in the SLA: 30 mg/kg
[17]
  effect on percentage of open arm entries: significant effect
  effect on percentage of time on open arms: significant effect
  effects on general activity-related parameters: without concomitant effects

## CN1C(=O)CN=C(c2ccccc2)c2cc(Cl)ccc21 [diazepam]
[11]; read-out: % of control current, α5β3γ2, 100 nM, EC3 GABA, mean ± SEM
  remaining activity at 0.1 µM: 322 ± 7%
[12]; [18]
  remaining activity at 0.1 µM: 246 ± 16%
[13]
  remaining activity at 0.1 µM: 461 ± 34%
[14]; read-out: % of control current, α2β3γ2, 100 nM, EC3 GABA, mean ± SEM
  remaining activity at 0.1 µM: 400 ± 22%
[3]; 2.0 mg/kg i.p.
  effect on percentage of time on open arms: effective treatments
[5]; 1.25 mg/kg i.p.
  effect on total distance travelled during 45 min: activity-depressing effect of all three treatments was significant
[5]; 2 mg/kg i.p.
  effect on distance travelled in 5-min bins: induced overt sedation during the first 10 min of recording
  effect on total distance (locomotion), 30 min: significantly depressed locomotion

## Cc1ccc(-c2nc3ccc(C)cn3c2CC(=O)N(C)C)cc1 [zolpidem]
[11]
  % of control current, α5β3γ2: non-significant changes relative to control current
[12]; [18]
  remaining activity at 0.1 µM: 180 ± 14%
[9]; 0.5 mg/kg i.p. daily, vs control
  overall influence on water maze learning parameters (acquisition): different related to control
[9]; 2 mg/kg i.p., day 5 of acquisition, chance 40%
  percent of distance travelled in the NE quadrant that was in the target region: 40.5%
[9]; 1 and 2 mg/kg i.p. daily, vs 0.5 mg/kg
  overall influence on water maze learning parameters (acquisition): behaviorally impaired related to 0.5 mg/kg zolpidem
[9]; [19]
  Peripheral ring distance, probe trial: 4.16±0.61 m
  Peripheral ring time, probe trial: 33.48 ± 3.68 s
  Platform distance, probe trial: 0.097±0.031 m
  Platform number of entries, probe trial: 1.25±0.41
  Platform quadrant (NE) distance, probe trial: 2.41±0.29 m
  Platform quadrant (NE) time, probe trial: 11.86 ± 1.44 s
  Platform ring distance, probe trial: 5.27±0.68 m
  Platform ring time, probe trial: 21.46 ± 3.05 s
  Target region distance, probe trial: 1.51±0.27 m
  Target region time, probe trial: 7.26 ± 1.36 s
[9]; [20]
  Peripheral ring distance, probe trial: 6.09±0.89 m
  Peripheral ring time, probe trial: 39.86 ± 1.67 s
  Platform distance, probe trial: 0.047±0.028 m
  Platform number of entries, probe trial: 0.38±0.18
  Platform quadrant (NE) distance, probe trial: 2.18±0.51 m
  Platform ring distance, probe trial: 4.48±0.31 m
  Platform ring time, probe trial: 17.31 ± 1.38 s
  Target region distance, probe trial: 1.12±0.14 m
[9]; zolpidem 1.0 mg/kg during acquisition, ±SEM, P<0.05 vs ZOL 0.5
  Target region time, probe trial: 4.03 ± 0.52 s
[9]; [21]
  Peripheral ring time, probe trial: 42.80 ± 3.35 s
  Platform distance, probe trial: 0.053±0.023 m
  Platform number of entries, probe trial: 0.50±0.19
  Platform quadrant (NE) distance, probe trial: 2.22±0.44 m
  Platform ring distance, probe trial: 4.00±0.65 m
  Platform ring time, probe trial: 14.50 ± 2.60 s
  Target region distance, probe trial: 0.99±0.22 m
[9]; [22]
  Peripheral ring distance, probe trial: 7.85±0.82 m
  Target region time, probe trial: 3.51 ± 0.76 s
[2]; read-out: Ki α5, [3H]flunitrazepam, transfected HEK 293T, duplicate
  Ki: > 10 µM
